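These data come from cells grown in 96-well plates and exposed to compound for 48 hours at five concentrations. Here, GI50 denotes the concentration required for 50% inhibition of growth. TGI marks complete inhibition of growth.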
How the values were obtained:
Experiment in all cases: NCI anticancer screen, dose series, 48 h
[1] = tested on: K-562 leukemia
[2] = tested on: OVCAR-4 ovarian
[3] = tested on: OVCAR-5 ovarian
[4] = tested on: RXF 393 renal
[5] = tested on: SF-539 CNS
[6] = tested on: SK-MEL-2 melanoma
[7] = tested on: SK-MEL-28 melanoma
[8] = tested on: SR leukemia
[9] = tested on: SW-620 colon
[10] = tested on: T-47D breast

Structure (SMILES) | TGI [1] | TGI [2] | TGI [3] | TGI [4] | TGI [5] | TGI [6] | TGI [7] | TGI [8] | TGI [9] | TGI [10] | GI50 [1] | GI50 [2] | GI50 [3] | GI50 [4] | GI50 [5] | GI50 [6] | GI50 [7] | GI50 [8] | GI50 [9] | GI50 [10]
O=[N+]([O-])c1oc2ccc3ccccc3c2c1CCO | > 100 µM | 17.3 µM | 34.9 µM | 3.71 µM | 13.4 µM | 3.94 µM | 3.27 µM | 3.23 µM | 40.2 µM | 73.3 µM |  |  |  |  |  |  |  |  |  | 
CC(C)C(=O)c1c(C(F)(F)F)n([O-])c2ccccc2[n+]1=O | > 27.1 µM | 18.8 µM | 6.25 µM | 13 µM | 5.17 µM | 5.58 µM | 25.1 µM |  | 17.5 µM | 3.49 µM | 0.508 µM | 4.47 µM | 2.7 µM | 2.35 µM | 1.81 µM | 2.01 µM | 9.06 µM | < 0.0197 µM | 4.34 µM | 0.827 µM
Cc1ccccc1C(C(=O)NC1CCCCC1)N(C(=O)CNc1ncccc1F)c1cccc(F)c1 (centres undefined) | > 100 µM | > 100 µM | > 100 µM | 20.1 µM | 81.7 µM | > 90.3 µM | > 100 µM | > 100 µM | > 100 µM | > 100 µM | > 100 µM | > 23.6 µM | > 100 µM | 4.72 µM | 22.7 µM | 28.9 µM | > 100 µM | > 100 µM | > 100 µM | 60.8 µM
O=C1NC(=NCCc2ccccn2)S/C1=C\c1ccc2ncccc2c1 | > 25 µM | > 25 µM | > 25 µM | > 25 µM | > 25 µM | > 22.2 µM | > 25 µM | 14 µM | > 25 µM | > 25 µM | 9.99 µM | 14.1 µM | > 22.3 µM | 8.97 µM | 6.68 µM | 9.02 µM | 15.4 µM | 4.21 µM | 8.33 µM | 11 µM
CC(C)Cc1ccc(C(C)C(=O)NCc2ccc(Cn3c(=O)sn(CCCI)c3=O)cc2)cc1 (centres undefined) | > 100 µM | 2.12 µM | 2.84 µM | 1.33 µM | 2.08 µM | 2.88 µM | 2.46 µM | > 100 µM | 0.75 µM | 5.93 µM | 0.388 µM | 0.736 µM | 1.39 µM | 0.326 µM | 0.804 µM | 1.34 µM | 1.2 µM | 0.364 µM | 0.259 µM | 1.64 µM
CCOC(=O)c1cc(NS(=O)(=O)c2ccc(C)cc2)cc(C(=O)OCC)c1 | > 100 µM | 85.5 µM | > 100 µM | > 100 µM | > 100 µM | > 100 µM | 93.5 µM | > 100 µM | > 100 µM | 83.6 µM | 40.2 µM | 21.2 µM | 37.9 µM | > 100 µM | 49.4 µM | 28.3 µM | 27 µM | 34.4 µM | > 100 µM | 21.1 µM
Cn1c(-c2c(N)n(Cc3ccc(F)cc3)c3nc(C#N)c(C#N)nc23)nc2ccccc21 | > 50 µM | > 50 µM | > 50 µM | 4.86 µM | > 50 µM | 34.9 µM | 29 µM | > 50 µM | 21 µM | 4.61 µM | 5.19 µM | 2.3 µM | 8.55 µM | 1.7 µM | 13.2 µM | 3.62 µM | 5.65 µM | 1.01 µM | 2.47 µM | 1.08 µM
Cc1ccsc1-c1ccc2c(c1)COC2(CCCN(C)C)c1ccc(F)cc1 (centres undefined) | 8.05 µM | 13 µM | 15 µM | 9.44 µM | 3.4 µM | 7.48 µM | 3.33 µM | 7.3 µM | 3.75 µM | 6.92 µM | 2.46 µM | 3.27 µM | 3.81 µM | 2.76 µM | 1.8 µM | 2.78 µM | 1.76 µM | 2.29 µM | 1.78 µM | 2.15 µM
CNC(=O)c1cccc(C#Cc2cncnc2Nc2ccc(OCc3cccc(F)c3)c(Cl)c2)c1 | > 25 µM | 12.3 µM | > 25 µM | 11.7 µM | 9.69 µM | > 25 µM | > 17.7 µM | > 25 µM | > 25 µM | 15.7 µM | 9.7 µM | 4.23 µM | 7.34 µM | 2.91 µM | 4.39 µM | 8.82 µM | 5.82 µM | 24.2 µM | 7.16 µM | 3.18 µM
CC(=O)N[C@@H](Cc1ccc(OP(=O)(O)O)cc1)C(=O)N[C@H]1CCC(=O)N2CCC[C@@H](C(=O)NCc3ccccc3)N2C1=O | > 25 µM | > 25 µM | > 25 µM | > 25 µM | > 25 µM | > 25 µM | > 25 µM | > 25 µM | > 25 µM | > 25 µM | > 25 µM | > 25 µM | > 25 µM | > 25 µM | > 25 µM | > 25 µM | > 25 µM | > 25 µM | > 25 µM | > 25 µM
